From PubChem BioAssay AID624076 (Broad Institute, 2012)
The source made the active and inactive calls. The rule behind the calls is not given here.

Assay: PubChem AID 624076
Conditions: Carna kinase panel, IMAP FP / mobility shift, at 10 µM, active compounds read high

SMILES: Cc1cnc(-c2cnc(NCCNc3ccc(C#N)cn3)nc2-c2ccc(Cl)cc2Cl)[nH]1
- inhibition (ABL(E255K)): -2.21% (inactive)
- inhibition (ABL(T315I)): 3.27% (inactive)
- inhibition (AKT2): 0.832% (inactive)
- inhibition (AKT3): 0% (inactive)
- inhibition (ALK(R1275Q)): -2.15% (inactive)
- inhibition (ARG): -1.99% (inactive)
- inhibition (AXL): 6.91% (inactive)
- inhibition (AurB): 2.87% (inactive)
- inhibition (AurC): 6.65% (inactive)
- inhibition (BMPR1A): -9.7% (inactive)
- inhibition (BRAF(V600E)): 14% (inactive)
- inhibition (BRAF): 53.8%
- inhibition (BRK): -3.52% (inactive)
- inhibition (BRSK1): 10.2% (inactive)
- inhibition (BTK): -3.98% (inactive)
- inhibition (CDC7): -7.36% (inactive)
- inhibition (CDK3): 42.4% (inactive)
- inhibition (CDK5): 51.2%
- inhibition (CDK9): 88.1%
- inhibition (CHK2): 4.54% (inactive)
- inhibition (CK1e): 10.4% (inactive)
- inhibition (CK1g1): 85.8%
- inhibition (CK2a2/b): 48.7% (inactive)
- inhibition (CK1d): 23.2% (inactive)
- inhibition (CLK1): 70.5%
- inhibition (CLK2): 47.6% (inactive)
- inhibition (COT): -1.49% (inactive)
- inhibition (CRIK): 1.36% (inactive)
- inhibition (CTK): -2.12% (inactive)
- inhibition (CaMK2b): 0.457% (inactive)
- inhibition (CaMK4): 6.27% (inactive)
- inhibition (CaMK1d): 2.64% (inactive)
- inhibition (DAPK1): 0.121% (inactive)
- inhibition (DCAMKL2): 4.09% (inactive)
- inhibition (DLK): -12.2% (inactive)
- inhibition (DYRK1B): 20.8% (inactive)
- inhibition (DYRK2): 17.2% (inactive)
- inhibition (EGFR(L861Q)): 1.1% (inactive)
- inhibition (EML4-ALK): -2.55% (inactive)
- inhibition (EPHA3): -5.65% (inactive)
- inhibition (EPHA5): -4.24% (inactive)
- inhibition (EPHA8): -7.66% (inactive)
- inhibition (EPHB1): 0.223% (inactive)
- inhibition (EPHB4): -0.865% (inactive)
- inhibition (FGFR1): 13.1% (inactive)
- inhibition (FGFR3(K650E)): 12.5% (inactive)
- inhibition (FGFR3(K650M)): 11.8% (inactive)
- inhibition (FGFR4(N535K)): 3.65% (inactive)
- inhibition (FGFR4(V550L)): 7.1% (inactive)
- inhibition (FGFR4): 1.13% (inactive)
- inhibition (FLT4): 40.4% (inactive)
- inhibition (FMS): 9.78% (inactive)
- inhibition (GSK3a): 99.9%
- inhibition (HER4): -8.68% (inactive)
- inhibition (HIPK1): 15.1% (inactive)
- inhibition (HIPK3): 11% (inactive)
- inhibition (Haspin): 9.76% (inactive)
- inhibition (IGF1R): 0.373% (inactive)
- inhibition (IKKb): 7.11% (inactive)
- inhibition (IRAK4): -0.123% (inactive)
- inhibition (IRR): 2.61% (inactive)
- inhibition (JAK2): 5.28% (inactive)
- inhibition (JAK3): 18.1% (inactive)
- inhibition (JNK1): 11.5% (inactive)
- inhibition (JNK2): 18.8% (inactive)
- inhibition (JNK3): 16.9% (inactive)
- inhibition (KIT(T670I)): 2.37% (inactive)
- inhibition (KIT(V560G)): 8.71% (inactive)
- inhibition (KIT): 5.43% (inactive)
- inhibition (LATS2): 9.73% (inactive)
- inhibition (LKB1): 16.6% (inactive)
- inhibition (LOK): 4.96% (inactive)
- inhibition (LTK): -0.743% (inactive)
- inhibition (LYNa): 0.071% (inactive)
- inhibition (MAP2K5): -7.9% (inactive)
- inhibition (MAP3K1): 8.06% (inactive)
- inhibition (MAP3K3): -21.6% (inactive)
- inhibition (MAP4K2): 12.9% (inactive)
- inhibition (MARK2): 13.3% (inactive)
- inhibition (MARK4): 15.4% (inactive)
- inhibition (MELK): 53.5%
- inhibition (MER): 3.47% (inactive)
- inhibition (MGC42105): 6.7% (inactive)
- inhibition (MINK): 4.57% (inactive)
- inhibition (MLK1): 51.4%
- inhibition (MLK2): 0.179% (inactive)
- inhibition (MOS): 5.27% (inactive)
- inhibition (MSK1): 7.16% (inactive)
- inhibition (MST2): 5.83% (inactive)
- inhibition (MST4): 8.12% (inactive)
- inhibition (NDR1): 2.42% (inactive)
- inhibition (NEK1): 15.9% (inactive)
- inhibition (NEK2): 8.33% (inactive)
- inhibition (NEK6): 2.28% (inactive)
- inhibition (NEK7): -3.45% (inactive)
- inhibition (PAK3): 14.2% (inactive)
- inhibition (PAK4): -9.87% (inactive)
- inhibition (PAK5): 7.25% (inactive)
- inhibition (PASK): 8.83% (inactive)
- inhibition (PBK): 3.01% (inactive)
- inhibition (PDGFRa(V561D)): 27% (inactive)
- inhibition (PEK): 23.7% (inactive)
- inhibition (PGK): -2.42% (inactive)
- inhibition (PHKG1): 6.01% (inactive)
- inhibition (PIM3): -2.3% (inactive)
- inhibition (PKACg): 2.06% (inactive)
- inhibition (PKCb2): 10.5% (inactive)
- inhibition (PKCd): 15.8% (inactive)
- inhibition (PKCg): 8.43% (inactive)
- inhibition (PKD1): 24.8% (inactive)
- inhibition (PKD2): 19.5% (inactive)
- inhibition (PKD3): 40.8% (inactive)
- inhibition (PKN1): 14.8% (inactive)
- inhibition (PLK1): 59.2%
- inhibition (PLK4): -13.5% (inactive)
- inhibition (PRKX): 3.31% (inactive)
- inhibition (RET(S891A)): 32.1% (inactive)
- inhibition (RET(Y791F)): 12.8% (inactive)
- inhibition (ROCK1): 0.774% (inactive)
- inhibition (ROCK2): 1.96% (inactive)
- inhibition (ROS): 11.2% (inactive)
- inhibition (RSK1): 19.3% (inactive)
- inhibition (RSK2): 19.9% (inactive)
- inhibition (RSK4): 30.6% (inactive)
- inhibition (SGK3): 0.522% (inactive)
- inhibition (SIK): 2.55% (inactive)
- inhibition (SLK): 43.3% (inactive)
- inhibition (SRC): 2.22% (inactive)
- inhibition (SRM): -1.3% (inactive)
- inhibition (SRPK1): 17.3% (inactive)
- inhibition (SYK): 1.08% (inactive)
- inhibition (TAK1-TAB1): 34.1% (inactive)
- inhibition (TIE2): 4.06% (inactive)
- inhibition (TNK1): 27.1% (inactive)
- inhibition (TRKA): 9.49% (inactive)
- inhibition (TSSK3): -3.5% (inactive)
- inhibition (TTK): -10.8% (inactive)
- inhibition (TYK2): -0.177% (inactive)
- inhibition (WNK2): 3.23% (inactive)
- inhibition (p38d): 2.62% (inactive)
